pIC50: −log10 of the molar value.
Each compound was assayed against T1, human GPR84 receptor (Homo sapiens, UniProt Q9NQS5) (assay: cAMP HTRF assay for identification of cellular GPR84 antagonists). Conditions: CHO-K1 cells stably expressing human GPR84; Forskolin plus agonist 6-OAU; cAMP HTRF readout; average or median values.
T1 construct: frozen aliquots prepared by acCELLerate; host or cells: CHO-K1
Assay type: cell-based
Outline: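 CHO-K1 cells stably expressing human GPR84, preincubated with compound 30 min at room temperature, then stimulated 30 min with 6-OAU (EC80) plus forskolin (EC90). cAMP measured by HTRF 665/620 nm ratio after 60 min lysis; 11 concentrations from 20 μM to 0.07 nM in duplicate, IC50 by 4-parameter fit.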

T1 sequence (Q9NQS5 whole entry): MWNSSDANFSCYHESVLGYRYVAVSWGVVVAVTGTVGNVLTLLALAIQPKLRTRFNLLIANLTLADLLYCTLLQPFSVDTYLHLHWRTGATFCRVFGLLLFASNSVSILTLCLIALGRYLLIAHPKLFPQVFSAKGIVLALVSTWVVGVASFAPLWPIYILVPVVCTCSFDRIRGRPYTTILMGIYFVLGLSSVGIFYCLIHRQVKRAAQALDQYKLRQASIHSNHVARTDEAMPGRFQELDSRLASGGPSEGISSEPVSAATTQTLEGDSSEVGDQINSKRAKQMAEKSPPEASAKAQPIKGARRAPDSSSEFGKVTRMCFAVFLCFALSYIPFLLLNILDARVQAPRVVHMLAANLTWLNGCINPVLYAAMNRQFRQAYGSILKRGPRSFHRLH

`Cc1c(C(=O)NCCO)oc2c1-c1nn(Cc3ccc(Cl)cc3)cc1CC2` [Example 58, 2-[(4-chlorophenyl)methyl]-N-(2-hydroxyethyl)-8-methyl-4,5-dihydro-2H-furo[2,3-g]indazole-7-carboxamide] and `Cc1c(C(=O)NCCC(N)=O)oc2c1-c1nn(Cc3ccc(Cl)cc3)cc1CC2` [Example 56, N-(3-amino-3-oxopropyl)-2-[(4-chlorophenyl)methyl]-8-methyl-4,5-dihydro-2H-furo[2,3-g]indazole-7-carboxamide] are within 0.2 log units of each other in pIC50: 5.28 for the first, 5.31 for the second.

`Cc1c(C(=O)NCCN2CCCC2)oc2c1-c1nn(Cc3ccc(Cl)cc3)cc1CC2` [Example 24, 2-[(4-chlorophenyl)methyl]-8-methyl-N-[2-(pyrrolidin-1-yl)ethyl]-4,5-dihydro-2H-furo[2,3-g]indazole-7-carboxamide] and `Cc1c(C(=O)NCCN2CCCCC2)oc2c1-c1nn(Cc3cccc(Cl)c3)cc1CC2` [Example 19, 2-[(3-chlorophenyl)methyl]-8-methyl-N-[2-(piperidin-1-yl)ethyl]-4,5-dihydro-2H-furo[2,3-g]indazole-7-carboxamide] are within 0.2 log units of each other in pIC50: 5.98 for the first, 6.11 for the second.

First: Cc1c(C(=O)NCC2CCCO2)oc2c1-c1nn(Cc3ccc(Cl)cc3)cc1CC2 (single isomer, unassigned) [Example 21-1]
Second: Cc1c(C(=O)NCC(F)F)oc2c1-c1nn(Cc3ccc(Cl)cc3)cc1CC2 [Example 65, 2-[(4-chlorophenyl)methyl]-N-(2,2-difluoroethyl)-8-methyl-4,5-dihydro-2H-furo[2,3-g]indazole-7-carboxamide]
The pIC50 of the first is 1.15 log units higher: 6.28 for the first, 5.13 for the second. The first is the more potent here.

First: Cc1c(C(=O)NCc2ccncc2)oc2c1-c1nn(Cc3ccc(Cl)cc3)cc1CC2 [Example 45, 2-[(4-chlorophenyl)methyl]-8-methyl-N-[(pyridin-4-yl)methyl]-4,5-dihydro-2H-furo[2,3-g]indazole-7-carboxamide]
Second: Cc1c(C(=O)NCc2ccc(C(N)=O)cc2)oc2c1-c1nn(Cc3ccc(Cl)cc3)cc1CC2 [Example 42, N-[(4-carbamoylphenyl)methyl]-2-[(4-chlorophenyl)methyl]-8-methyl-4,5-dihydro-2H-furo[2,3-g]indazole-7-carboxamide]
The pIC50 of the first is 0.30 log units lower: 5.84 for the first, 6.14 for the second.

Going from `COCCNC(=O)CNC(=O)c1oc2c(c1C)-c1nn(Cc3ccc(Cl)cc3)cc1CC2` [Example 32, 2-[(4-chlorophenyl)methyl]-N-{2-[(2-methoxyethyl)amino]-2-oxoethyl}-8-methyl-4,5-dihydro-2H-furo[2,3-g]indazole-7-carboxamide] to `Cc1c(C(=O)N(C)CCO)oc2c1-c1nn(Cc3ccc(Cl)cc3)cc1CC2` [Example 85, 2-[(4-chlorophenyl)methyl]-N-(2-hydroxyethyl)-N,8-dimethyl-4,5-dihydro-2H-furo[2,3-g]indazole-7-carboxamide], the pIC50 falls from 5.61 to 4.77 (0.84 log units). The first is the more potent here.

Going from `Cc1c(C(=O)NCc2ccon2)oc2c1-c1nn(Cc3ccc(F)cc3Cl)cc1CC2` [Example 94] to `Cc1ccc(Cn2cc3c(n2)-c2c(oc(C(=O)NCc4ccon4)c2C)CC3)cc1` [Example 3, 8-methyl-2-[(4-methylphenyl)methyl]-N-[(1,2-oxazol-3-yl)methyl]-4,5-dihydro-2H-furo[2,3-g]indazole-7-carboxamide], the pIC50 rises from 6.55 to 6.85 (0.30 log units).

`Cc1c(C(=O)N2CCc3ccccc3C2)oc2c1-c1nn(Cc3ccc(Cl)cc3)cc1CC2` [Example 61, {2-[(4-chlorophenyl)methyl]-8-methyl-4,5-dihydro-2H-furo[2,3-g]indazol-7-yl}(3,4-dihydroisoquinolin-2(1H)-yl)methanone] and `Cc1c(C(=O)NCCc2ccccc2)oc2c1-c1nn(Cc3ccc(Cl)cc3)cc1CC2` [Example 57, 2-[(4-chlorophenyl)methyl]-8-methyl-N-(2-phenylethyl)-4,5-dihydro-2H-furo[2,3-g]indazole-7-carboxamide] are within 0.2 log units of each other in pIC50: 5.22 for the first, 5.30 for the second.

Going from `Cc1c(C(=O)NCC2CCCO2)oc2c1-c1nn(Cc3ccc(Cl)cc3)cc1CC2` (single isomer, unassigned) [Example 21-2] to `Cc1c(C(=O)NCc2ncc[nH]2)oc2c1-c1nn(Cc3ccc(Cl)cc3)cc1CC2` [Example 78, 2-[(4-chlorophenyl)methyl]-N-[(1H-imidazol-2-yl)methyl]-8-methyl-4,5-dihydro-2H-furo[2,3-g]indazole-7-carboxamide], the pIC50 falls from 7.05 to 4.84 (2.21 log units).

Compared with `Cc1c(C(=O)N(C)Cc2ccnn2C)oc2c1-c1nn(Cc3ccc(Cl)cc3)cc1CC2` [Example 84, 2-[(4-chlorophenyl)methyl]-N,8-dimethyl-N-[(1-methyl-1H-pyrazol-5-yl)methyl]-4,5-dihydro-2H-furo[2,3-g]indazole-7-carboxamide], `Cc1c(C(=O)NCc2ccnn2C)oc2c1-c1nn(Cc3ccc(Cl)cc3)cc1CC2` [Example 46, 2-[(4-chlorophenyl)methyl]-8-methyl-N-[(1-methyl-1H-pyrazol-5-yl)methyl]-4,5-dihydro-2H-furo[2,3-g]indazole-7-carboxamide] is 0.99 log units higher in pIC50: 4.79 for the first, 5.78 for the second. The second is the more potent here.

`Cc1c(C(=O)NCCN2CCN(C)CC2)oc2c1-c1nn(Cc3cccc(Cl)c3)cc1CC2` [Example 17, 2-[(3-chlorophenyl)methyl]-8-methyl-N-[2-(4-methylpiperazin-1-yl)ethyl]-4,5-dihydro-2H-furo[2,3-g]indazole-7-carboxamide] and `Cc1c(C(=O)NCCN2CCCC2)oc2c1-c1nn(Cc3ccccc3Cl)cc1CC2` [Example 12, 2-[(2-chlorophenyl)methyl]-8-methyl-N-[2-(pyrrolidin-1-yl)ethyl]-4,5-dihydro-2H-furo[2,3-g]indazole-7-carboxamide] are within 0.2 log units of each other in pIC50: 6.49 for the first, 6.52 for the second.

Compared with `Cc1c(C(=O)N(C)Cc2ccccn2)oc2c1-c1nn(Cc3ccc(Cl)cc3)cc1CC2` [Example 89, 2-[(4-chlorophenyl)methyl]-N,8-dimethyl-N-[(pyridin-2-yl)methyl]-4,5-dihydro-2H-furo[2,3-g]indazole-7-carboxamide], `Cc1c(C(=O)N(C)Cc2ccco2)oc2c1-c1nn(Cc3ccc(Cl)cc3)cc1CC2` [Example 72, 2-[(4-chlorophenyl)methyl]-N-[(furan-2-yl)methyl]-N,8-dimethyl-4,5-dihydro-2H-furo[2,3-g]indazole-7-carboxamide] is 0.24 log units higher in pIC50: 4.76 for the first, 5.00 for the second. The second is the more potent here.

Going from `Cc1ccccc1Cn1cc2c(n1)-c1c(oc(C(=O)NCC3CCCN3)c1C)CC2` (single isomer, unassigned) [Example 7-2] to `CC(=O)N1CCN(C(=O)CNC(=O)c2oc3c(c2C)-c2nn(Cc4ccc(Cl)cc4)cc2CC3)CC1` [Example 29, N-[2-(4-acetylpiperazin-1-yl)-2-oxoethyl]-2-[(4-chlorophenyl)methyl]-8-methyl-4,5-dihydro-2H-furo[2,3-g]indazole-7-carboxamide], the pIC50 falls from 6.20 to 5.09 (1.11 log units). The first is the more potent here.

From patent publication US20240239804A1, “FUROINDAZOLE DERIVATIVES AS ANTAGONISTS OR INHIBITORS OF GPR84” (Bayer Aktiengesellschaft, priority 2021, published 2024)
